Measurements published in patent EP0511759A1, “Biotoxicity test for chemicals” (THE STANDARD OIL COMPANY, priority 1991, dated 1992).

System: Anthophysa vegetans protozoa
Test: Protozoan feeding-behaviour bioassay: turbidity (absorbance at 540 nm) of live bacterial feed remaining
Format: cell-based
Experimental: The first step of the inventive process comprises adding protozoa and feed into test and control samples which contain inorganic buffers. The chemical substance whose toxic activity is being investigated is then added to the test samples but not to the control samples. The order of adding protozoa, feed and chemical substance is not critical. The amount of protozoa added is usually about at or below 1 x 10⁶ per ml. If dead bacteria are used as feed, they are added at sufficient concentrations to increase the turbidity of the medium to at least 0.3 at 540 nm in a 1.0 cm pathlength tube; this corresponds to concentration of about 2.5 x 10⁹ bacteria per ml. If live bacteria are added as feed, the inoculum level is about 0.01 to about 1% of a fully grown bacterial culture in the range of about 1 x 10⁶ to about 1 x 10⁸ bacteria per ml. […] A sample containing live bacteria is supplemented with a carbon source to support bacterial growth. The carbon sources are generally used at a final concentration of about 0.05%.
This reduction in turbidity generally takes about 1 to about 5 days. If the feed employs live bacteria, there is an initial increase in the turbidity. This increase is then followed by a decrease in turbidity in the control tubes as stated above. If the test chemical is not toxic to the protozoa, the turbidity decreases in the sample tube. If the test chemical is toxic to the protozoa, the turbidity will remain essentially unchanged. The size and volume of the resulting mixture are not critical, provided there is sufficient volume to permit either visual or spectrophotometrical observations of the change in turbidity of the microbial cultures. Typically, about 3 ml to about 5 ml samples were used.
Protozoa, Anthophysa vegetans at about 1 x 10⁵ per ml and a mixed bacteria population of soil bacteria containing but not limited to Alcaligenis and Psuedomonas at about 1 x 10⁶ per ml were inoculated into a growth medium as described above in "Culturing and Test Procedures". The bacteria multiplied in numbers and caused an initial increase in the turbidity (absorbance) of the growth medium, generally from about 0.03 to about 0.4, as measured at 540 nm in a 1.0 cm pathlength tube. After about one day of incubation, the bacterial growth ceased due to the limitation of carbon source. […] The protozoa preyed on the bacteria, leading to a reduction in bacterial cell concentration, indicated by a reduction of turbidity. This growth sequence is illustrated in Line A of Figure 2. If the bacterial cultures were grown without added protozoa, a similar increase in turbidity took place. However, there was no significant reduction in turbidity after the growth phase was completed. This is illustrated in Line B of Figure 2.
Anthophysa vegetans protozoa and live mixed population of soil bacteria containing but not limited to Psuedomonas and Alcaligenis were inoculated into a growth medium as described under "Culturing and Test Procedures". The test chemical, a phenol ethoxylate surfactant, Igepal CO 850 (GAF Chemicals Corp.), was added at different concentrations. A control without added surfactant was maintained. […] However, at about 0 and about 10 ppm surfactant, the absorbance decreased on further incubation. […] The tolerance level of the protozoa, (i.e., the concentration level at which feeding inhibition is first observed) is about 100 ppm Igepal CO 850. […] The protozoa preyed on the bacteria, resulting in reduced absorbance at 540 nm after two days incubation. […]

O=[N+]([O-])c1ccc(O)cc1 [4-nitrophenol]
LC₅₀ (Protozoa Inocula Level 0.0001X): 0.46 ppm
LC₅₀ (Protozoa Inocula Level 0.001X): 5.6 ppm
LC₅₀ (Protozoa Inocula Level 0.01X): 12.5 ppm
LC₅₀ (Protozoa Inocula Level 0.1X): 19.5 ppm
LC₅₀ (Protozoa Inocula Level 1.0X): 36 ppm
